Measurements reported in patent US10703751B2, “Amino-imidazopyridine derivatives as Janus kinase inhibitors and pharmaceutical use thereof” (LEO Pharma A/S, priority 2017, dated 2020).
Values after ≈ are worked out from the molar mass of the structure shown. Where two headings read alike, the source gives them in different places.

Columns and labels:
[1] = Aqueous solubility of crystalline material; format: physicochemical; conditions: aqueous medium, aqueous buffer, thermodynamic from solid
Description: The aqueous solubility of crystalline Example 3, Example 644 and 641 of WO2011086053 at different pH's was evaluated.

JAK2 = JAK2 (Homo sapiens (Human), UniProt O60674); assay: JAK2 kinase assay (HTRF); format: biochemical; conditions: ATP at Km (4 μM)
Chain of JAK2 (O60674 849-1124): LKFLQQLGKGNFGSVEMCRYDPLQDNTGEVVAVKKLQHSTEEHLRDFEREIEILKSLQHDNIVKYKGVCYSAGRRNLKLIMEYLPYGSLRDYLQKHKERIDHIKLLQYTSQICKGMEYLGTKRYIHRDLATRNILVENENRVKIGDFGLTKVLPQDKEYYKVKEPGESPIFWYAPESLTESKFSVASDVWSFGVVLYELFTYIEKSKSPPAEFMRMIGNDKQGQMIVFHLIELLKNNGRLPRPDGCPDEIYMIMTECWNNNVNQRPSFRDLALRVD
Description: (§1) Human baculovirus-expressed Janus kinase (JAK) 1, 2, 3 and tyrosin kinase (TYK) 2 were purchased from Carna Biosciences, Inc (#08-144, -045, -046, -147 resp.). All four purified enzymes contain only the catalytic domain. JAK1 (aa 850-1154) and TYK2 (aa 871-1187) are expressed with an N-terminally fused GST-tag, and JAK2 and JAK3 with an N-terminally fused His-tag. Inhibition of phosphorylation of a synthetic peptide was measured in an HTRF-based assay (CisBio #62TKOPEC). First, 75 nL of test compound solution (100% DMSO) was added to a white shallow 384-well plate (NUNC #264706) using a Labcyte ECHO 550 liquid handler. Thereafter, 1 μL of compound dilution buffer (50 mM HEPES, 0.05% bovine serum albumin) and 2 μL of TK solution (TK substrate-biotin in kinase buffer [1× enzymatic buffer from HTRFKinEASE TK kit, 1 mM DTT]) was added. Then, 5 μL kinase-ATP mix (prepared in kinase buffer) was added to the wells and the plates were incubated at RT for 20 (JAK2, 3 and TYK2) to 40 (JAK1) min. For all four kinases a concentration of ATP that corresponded to the Km for ATP was used. The final concentrations of buffers, substrate, kinase and ATP were: JAK1: 50 mM Hepes buffer pH 7.0, 0.01% BSA, 10 mM MgCl2, 1 mM DTT, 7 μM ATP, 50 nM SEB, 1 μM TK Substrate-Biotin and 5 ng/well JAK1; JAK2: 50 mM Hepes buffer pH 7.0, 0.01% BSA, 5 mM MgCl2, 1 mM DTT, 4 μM ATP, 1 μM TK Substrate-Biotin and 0.1 ng/well JAK2; JAK3: 50 mM Hepes buffer pH 7.0, 0.01% BSA, 5 mM MgCl2, 1 mM DTT, 2 μM ATP, 1 μM TK Substrate-Biotin and 0.3 ng/well JAK3; TYK2: 50 mM Hepes buffer pH 7.0, 0.01% BSA, 5 mM MgCl2, 1 mM DTT, 13 μM ATP, 50 nM SEB, 1 μM TK Substrate-Biotin and 0.8 ng/well TYK2. Thereafter, the kinase reaction was stopped by adding 4 μL detection mix (final concentrations: 50 mM Hepes buffer pH 7.0, 0.01% BSA, 0.8 M KF, 20 mM EDTA, 42 nM Streptavidin-XL665 and 1:400 STK Ab Cryptate) and the plates were incubated overnight in the dark. A PerkinElmer Envision reader was used to quantify the HTRF signal using the following filters; 320 nm excitation filter, 665 nm emission filter and a 615 nm 2nd emission filter. A ratio ((665/615)×10^4) was calculated for each well.

CYP2C9 = CYP2C9 (Homo sapiens (Human), UniProt P11712); assay: Reversible CYP inhibition, 2C9; format: in vitro ADME; conditions: up to 50 μM for Example 3, up to 25 μM for Examples 644 and 641
Chain of CYP2C9 (P11712 whole entry): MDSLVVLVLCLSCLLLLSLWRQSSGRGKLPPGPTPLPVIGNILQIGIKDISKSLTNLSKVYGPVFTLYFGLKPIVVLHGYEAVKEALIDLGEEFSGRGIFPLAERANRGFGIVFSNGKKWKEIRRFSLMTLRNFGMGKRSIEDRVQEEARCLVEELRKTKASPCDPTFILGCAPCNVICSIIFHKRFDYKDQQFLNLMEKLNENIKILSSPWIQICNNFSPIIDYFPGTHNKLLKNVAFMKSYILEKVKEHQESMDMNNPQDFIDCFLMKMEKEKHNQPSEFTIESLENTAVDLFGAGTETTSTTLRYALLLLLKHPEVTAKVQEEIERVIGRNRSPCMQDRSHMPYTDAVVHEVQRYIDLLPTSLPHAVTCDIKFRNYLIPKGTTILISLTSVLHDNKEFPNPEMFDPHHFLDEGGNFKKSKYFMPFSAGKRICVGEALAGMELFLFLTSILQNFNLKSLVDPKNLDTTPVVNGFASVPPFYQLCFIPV
Description: Reversible CYP inhibition, time dependent CYP inhibition (TDI) and CYP induction was tested at Cyprotex PLC according to authority guidance.

STAT5 irfl-bla TF1 cells = assay: STAT5 assay (EPO stimulated reporter cells); format: cell-based; conditions: Homo sapiens, TF-1; erythropoietin (EPO) 10 ng/mL
Description: Twenty-five μL of a STAT5 irfl-bla TF1 (Invitrogen # K1219) cell suspension was seeded with a density of about 10,000 cells/well in 384-well Black View-plates (PerkinElmer #6007460) with clear bottom in assay medium (Opti-MEM (Invitrogen #11058-021)+0.5% heat inactivated fetal bovine Serum (Invitrogen #10082-147)+1% non-essential amino acids (Invitrogen #11140-050)+1% sodium pyruvate (Invitrogen #11360-070)+1% penicillin/streptomycin (Invitrogen #15140-122)). The cell plates were incubated overnight in a humidified 37° C. air/CO2 (95%/5%) incubator. The following day, 125 nL of solutions of test compounds and reference compounds were transferred to cell plates using the Labcyte Echo 550 liquid handler. The plates were then incubated for 1 h in a humidified 37° C. air/CO2 (95%/5%) incubator. Hereafter recombinant human erythropoietin (EPO) (Invitrogen # PHC9634) was added to the plates also using the Labcyte Echo 550 to a final concentration of 10 ng/mL. The cells were then incubated for 4½-5 h in a humidified 37° C. air/CO2 (95%/5%) incubator. 8 μL of LiveBLAzer substrate mixture (Invitrogen # K1095) were then added to the assay plates, which were then incubated overnight at RT. Fluorescence was then measured: Excitation: 405 nm; Emission: 460 nm (green channel), Emission: 535 nm (blue channel). Background was subtracted in both emission channels and the ratio 460/535 nm was calculated for each well.

JAK1 = JAK1 (Homo sapiens (Human), UniProt P23458); assay: JAK1 kinase assay (HTRF); format: biochemical; conditions: for JAK2/JAK1 ratio / JAK3/JAK1 ratio: ratio of the respective EC50
Chain of JAK1 (P23458 850-1154): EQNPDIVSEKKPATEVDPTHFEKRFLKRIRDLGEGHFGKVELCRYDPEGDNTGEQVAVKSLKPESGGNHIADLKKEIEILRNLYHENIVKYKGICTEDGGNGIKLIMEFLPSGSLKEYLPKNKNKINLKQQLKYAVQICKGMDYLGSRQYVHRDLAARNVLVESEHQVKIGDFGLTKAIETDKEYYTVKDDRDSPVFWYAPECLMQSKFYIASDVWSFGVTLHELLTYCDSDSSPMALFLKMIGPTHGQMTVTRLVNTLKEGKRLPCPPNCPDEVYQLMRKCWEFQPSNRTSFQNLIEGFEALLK
Description: as §1

EC50 (JAK1) [µM]	Structure (SMILES)	solubility ([1]; pH 2.0, crystalline material) [µg/mL]	solubility ([1]; pH 7.4, crystalline material) [µg/mL]	solubility ([1]; pH 9.0, crystalline material) [µg/mL]	EC50 (JAK2) [µM]	IC50 (CYP2C9) [µM]	EC50 (STAT5 irfl-bla TF1 cells) [µM]	EC50 (JAK1; ATP at Km (7 μM)) [µM]	JAK2/JAK1 ratio (JAK1)	JAK3/JAK1 ratio (JAK1)
–	CNc1cc2c(cn1)nc([C@@H](C)O)n2[C@H]1CC[C@H](CC#N)CC1 [Example 3, trans-2-[4-[2-[(1R)-1-Hydroxyethyl]-6-(methylamino)imidazo[4,5-c]pyridin-1-yl]cyclohexyl]acetonitrile]	> 346000	12300 (≈ 39.2 mM)	11100 (≈ 35.4 mM)	0.171	> 50	6.42	0.00348	51	489
0.00681	C[C@@H](O)c1nc2cnc3[nH]ccc3c2n1[C@H]1CC[C@H](C#N)CC1 [Example 641 of WO2011086053]	90000 (≈ 291 mM)	2260 (≈ 7.31 mM)	2280 (≈ 7.37 mM)	0.228	> 25	5.74	–	33	109
–	C[C@@H](O)c1nc2cnc3[nH]ccc3c2n1[C@H]1CC[C@H](CC#N)CC1 [Example 644 of WO2011086053]	2470 (≈ 7.64 mM)	136 (≈ 0.421 mM)	9.9 (≈ 0.0306 mM)	0.00334	> 25	0.123	0.00034	–	–
